Test results reported in ChEMBL document CHEMBL1155552, “New hydroxypyrimidinone-containing sulfonamides as carbonic anhydrase inhibitors also acting as MMP inhibitors” (Bioorg Med Chem Lett, 2010).
pKi: −log10 of the molar value.

Assays:
[1] = molecular target: T1, Matrilysin (Homo sapiens) (UniProt P09237); experiment: Inhibition of MMP7 at 100 uM
T1 sequence (whole entry): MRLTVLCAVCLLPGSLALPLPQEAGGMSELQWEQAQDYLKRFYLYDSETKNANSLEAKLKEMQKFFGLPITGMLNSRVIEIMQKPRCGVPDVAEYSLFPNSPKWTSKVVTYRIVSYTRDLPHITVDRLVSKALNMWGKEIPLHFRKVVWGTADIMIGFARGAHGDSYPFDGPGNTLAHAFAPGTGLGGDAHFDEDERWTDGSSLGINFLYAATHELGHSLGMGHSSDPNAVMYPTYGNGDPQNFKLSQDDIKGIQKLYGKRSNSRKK

[2] = molecular target: Matrix metalloproteinase-14 (Homo sapiens) (UniProt P50281); experiment: Inhibition of MMP14 at 3 uM
[3] = molecular target: T1, Matrilysin (Homo sapiens); experiment: Inhibition of MMP7 at 3 uM
[4] = molecular target: Matrix metalloproteinase-14 (Homo sapiens) (UniProt P50281); experiment: Inhibition of MMP14 at 100 uM
[5] = molecular target: 72 kDa type IV collagenase (Homo sapiens) (UniProt P08253); experiment: Inhibition of MMP2 at 3 uM
[6] = molecular target: Matrix metalloproteinase-9 (Homo sapiens) (UniProt P14780); experiment: Inhibition of MMP9 at 100 uM
[7] = molecular target: 72 kDa type IV collagenase (Homo sapiens) (UniProt P08253); experiment: Inhibition of MMP2 at 100 uM
[8] = molecular target: Matrix metalloproteinase-9 (Homo sapiens) (UniProt P14780); experiment: Inhibition of MMP9 at 3 uM
Carbonic anhydrase 9 = Carbonic anhydrase 9 (Homo sapiens, UniProt Q16790)
Description: Inhibition of human carbonic anhydrase 9

Carbonic anhydrase 2 = Carbonic anhydrase 2 (Homo sapiens, UniProt P00918); experiment: Inhibition of human carbonic anhydrase 2
[9] = molecular target: Matrix metalloproteinase-9 (Homo sapiens) (UniProt P14780); experiment: Inhibition of MMP9 at 10 uM
[10] = molecular target: 72 kDa type IV collagenase (Homo sapiens) (UniProt P08253); experiment: Inhibition of MMP2 at 30 uM
[11] = molecular target: Matrix metalloproteinase-9 (Homo sapiens) (UniProt P14780); experiment: Inhibition of MMP9 at 1 uM
[12] = molecular target: Matrix metalloproteinase-9 (Homo sapiens) (UniProt P14780); experiment: Inhibition of MMP9 at 30 nM
[13] = molecular target: 72 kDa type IV collagenase (Homo sapiens) (UniProt P08253); experiment: Inhibition of MMP2 at 30 nM
[14] = molecular target: 72 kDa type IV collagenase (Homo sapiens) (UniProt P08253); experiment: Inhibition of MMP2 at 300 uM

Sequence of Matrix metalloproteinase-9 (Homo sapiens) (P14780 whole entry): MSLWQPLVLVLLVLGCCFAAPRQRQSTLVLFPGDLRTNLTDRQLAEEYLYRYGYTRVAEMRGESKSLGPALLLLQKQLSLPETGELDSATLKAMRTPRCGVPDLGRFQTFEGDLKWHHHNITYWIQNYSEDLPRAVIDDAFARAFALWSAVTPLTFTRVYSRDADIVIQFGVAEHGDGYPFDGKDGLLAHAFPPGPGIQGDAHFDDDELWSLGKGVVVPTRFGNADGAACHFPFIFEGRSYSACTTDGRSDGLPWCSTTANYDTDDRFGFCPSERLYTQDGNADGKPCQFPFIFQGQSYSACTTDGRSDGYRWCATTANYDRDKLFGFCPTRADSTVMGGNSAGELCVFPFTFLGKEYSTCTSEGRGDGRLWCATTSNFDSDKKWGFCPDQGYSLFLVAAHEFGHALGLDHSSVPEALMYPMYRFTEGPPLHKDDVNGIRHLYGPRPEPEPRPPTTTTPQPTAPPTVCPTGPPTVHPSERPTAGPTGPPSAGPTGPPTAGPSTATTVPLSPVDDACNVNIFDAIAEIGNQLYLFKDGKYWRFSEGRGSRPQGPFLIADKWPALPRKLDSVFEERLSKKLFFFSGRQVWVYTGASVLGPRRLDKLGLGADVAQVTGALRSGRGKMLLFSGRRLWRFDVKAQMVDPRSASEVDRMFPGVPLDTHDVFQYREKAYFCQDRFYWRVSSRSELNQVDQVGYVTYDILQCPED
Sequence of 72 kDa type IV collagenase (Homo sapiens) (P08253 110-660 limits assumed): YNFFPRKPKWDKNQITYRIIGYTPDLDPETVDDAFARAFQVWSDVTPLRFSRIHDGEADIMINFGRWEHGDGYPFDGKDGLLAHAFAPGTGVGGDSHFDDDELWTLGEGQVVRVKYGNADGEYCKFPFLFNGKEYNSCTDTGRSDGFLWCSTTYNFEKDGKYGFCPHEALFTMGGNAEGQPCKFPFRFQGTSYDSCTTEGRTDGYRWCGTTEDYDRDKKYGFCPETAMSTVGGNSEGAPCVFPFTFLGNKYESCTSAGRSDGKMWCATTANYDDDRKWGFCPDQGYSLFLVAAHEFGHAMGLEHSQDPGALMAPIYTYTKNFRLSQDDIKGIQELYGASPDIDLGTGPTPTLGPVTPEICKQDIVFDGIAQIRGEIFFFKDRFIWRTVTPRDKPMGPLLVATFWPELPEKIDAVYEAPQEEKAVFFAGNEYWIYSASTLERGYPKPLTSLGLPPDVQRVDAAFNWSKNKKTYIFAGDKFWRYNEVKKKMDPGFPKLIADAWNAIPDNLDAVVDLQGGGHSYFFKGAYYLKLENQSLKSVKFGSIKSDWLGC

SMILES | inhibition [1] [%] | inhibition [3] [%] | inhibition [4] [%] | inhibition [5] [%] | inhibition [6] [%] | inhibition [7] [%] | inhibition [8] [%] | pKi (Carbonic anhydrase 9) | further results
NCCCCCNc1ccn(O)c(=O)n1 | 30 | 1 | 42 | 9 | 23 | 24 | 3 | – | inhibition [2]: 3%
NS(=O)(=O)c1ccc(CCNC(=O)CCCCCNc2ccn(O)c(=O)n2)cc1 | – | – | – | – | – | – | – | 8.39 | –
COC(=O)CCCCCNc1ccn(O)c(=O)n1 | – | – | – | – | – | – | – | < 6.00 | pKi (Carbonic anhydrase 2): 3.57
NS(=O)(=O)c1ccc(CCNc2ccn(O)c(=O)n2)cc1 | 38 | – | 48 | 7.4 | 67 | 86 | – | – | inhibition [9]: 9%; inhibition [10]: 19.6%; inhibition [11]: 6%
NCCCCNc1ccn(O)c(=O)n1 | 29 | 9 | 28 | 22 | 26 | – | 6 | – | inhibition [12]: 1%; inhibition [13]: 30%; inhibition [14]: 88%
NS(=O)(=O)c1ccc(NC(=O)CCCNc2ccn(O)c(=O)n2)cc1 | – | – | – | – | – | – | – | 8.47 | –
